From article PMC5545170 (Pediatric diabetes, 2017)
pIC50: −log10 of the molar value.

What was measured:
Test in all cases: spectrophotometric GDH activity in […] cell homogenate
Type in all cases: biochemical
[1] = molecular target: GDH (glutamate dehydrogenase, GLUD1) (Homo sapiens, UniProt P00367, H507Y)
[2] = molecular target: GDH (glutamate dehydrogenase, GLUD1) (Homo sapiens, UniProt P00367, S498L)
[3] = molecular target: GDH (glutamate dehydrogenase, GLUD1) (Homo sapiens, UniProt P00367)
Sequence of GDH (glutamate dehydrogenase, GLUD1) (Homo sapiens, UniProt P00367) (P00367 54-558): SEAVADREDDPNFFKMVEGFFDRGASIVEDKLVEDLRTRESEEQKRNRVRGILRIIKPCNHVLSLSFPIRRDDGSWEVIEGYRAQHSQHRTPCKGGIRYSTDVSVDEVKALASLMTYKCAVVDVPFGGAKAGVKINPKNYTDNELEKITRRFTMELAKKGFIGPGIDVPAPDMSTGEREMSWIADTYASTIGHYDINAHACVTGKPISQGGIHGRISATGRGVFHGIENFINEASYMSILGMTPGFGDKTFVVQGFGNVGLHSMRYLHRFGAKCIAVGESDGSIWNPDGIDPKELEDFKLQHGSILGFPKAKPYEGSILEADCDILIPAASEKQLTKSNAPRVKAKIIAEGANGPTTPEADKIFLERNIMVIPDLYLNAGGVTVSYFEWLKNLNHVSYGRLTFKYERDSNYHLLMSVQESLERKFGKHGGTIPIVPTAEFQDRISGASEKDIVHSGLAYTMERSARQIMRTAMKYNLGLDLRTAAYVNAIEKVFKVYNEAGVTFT

Sequence of GDH (glutamate dehydrogenase, GLUD1) (Homo sapiens, UniProt P00367, S498L) (P00367 54-558 S498L): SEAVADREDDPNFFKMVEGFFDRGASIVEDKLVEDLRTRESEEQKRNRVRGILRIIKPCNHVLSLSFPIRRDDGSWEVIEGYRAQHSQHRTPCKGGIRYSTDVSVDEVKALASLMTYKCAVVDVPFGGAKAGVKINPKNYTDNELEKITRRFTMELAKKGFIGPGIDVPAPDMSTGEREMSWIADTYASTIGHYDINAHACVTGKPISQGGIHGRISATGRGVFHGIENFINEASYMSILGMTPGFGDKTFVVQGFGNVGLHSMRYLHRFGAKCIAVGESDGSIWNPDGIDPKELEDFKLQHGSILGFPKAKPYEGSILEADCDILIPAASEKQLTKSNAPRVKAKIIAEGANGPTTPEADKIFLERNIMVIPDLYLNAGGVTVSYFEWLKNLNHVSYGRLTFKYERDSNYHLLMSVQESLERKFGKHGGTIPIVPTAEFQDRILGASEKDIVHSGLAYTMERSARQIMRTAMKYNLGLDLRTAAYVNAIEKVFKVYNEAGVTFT
Sequence of GDH (glutamate dehydrogenase, GLUD1) (Homo sapiens, UniProt P00367, H507Y) (P00367 54-558 H507Y): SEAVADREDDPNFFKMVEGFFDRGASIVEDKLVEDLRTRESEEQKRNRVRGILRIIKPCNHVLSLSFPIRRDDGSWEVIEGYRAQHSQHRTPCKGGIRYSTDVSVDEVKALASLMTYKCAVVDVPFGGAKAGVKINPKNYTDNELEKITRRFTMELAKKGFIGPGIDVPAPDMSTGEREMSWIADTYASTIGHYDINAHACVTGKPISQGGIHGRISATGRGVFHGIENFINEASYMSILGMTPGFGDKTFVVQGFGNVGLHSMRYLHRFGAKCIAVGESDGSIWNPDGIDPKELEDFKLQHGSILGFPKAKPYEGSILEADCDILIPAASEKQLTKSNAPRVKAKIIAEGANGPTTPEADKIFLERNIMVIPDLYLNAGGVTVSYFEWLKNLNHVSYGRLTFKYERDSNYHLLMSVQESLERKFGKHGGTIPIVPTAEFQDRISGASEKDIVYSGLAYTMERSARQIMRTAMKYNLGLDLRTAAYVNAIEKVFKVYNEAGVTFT

pIC50 [1]	pIC50 [2]	pIC50 [3]	Compound
5.99	5.97	5.98	O=C(O[C@@H]1Cc2c(O)cc(O)cc2O[C@@H]1c1cc(O)c(O)c(O)c1)c1cc(O)c(O)c(O)c1 [EGCG]
3.50	4.39	7.32	Nc1nc2c(ncn2[C@@H]2O[C@H](COP(=O)(O)OP(=O)(O)OP(=O)(O)O)[C@@H](O)[C@H]2O)c(=O)[nH]1 [GTP]
